Data as given in US20150087627A1, “COMBINATION OF KINASE INHIBITORS AND USES THEREOF” (Intellikine LLC, priority 2011, published 2015).

Key:
Assay type in all cases: biochemical
[1] = molecular target: T1, PI3K δ (Homo sapiens, UniProt O00329); test: PI 3-Kinase (human) HTRF assay, PI3K δ; conditions: read-out: PI3K δ IC50
T1 construct: purchased Upstate / Millipore Corporation

[2] = molecular target: T2, PI3K γ (p110γ) (Homo sapiens, UniProt P48736); test: PI 3-Kinase (human) HTRF assay, PI3K γ; conditions: read-out: PI3K γ IC50
T2 construct: purchased Upstate / Millipore Corporation

[3] = molecular target: T3, PI3K α (p110α/p85α) (Homo sapiens, UniProt P42336); test: PI 3-Kinase (human) HTRF assay, PI3K α; conditions: read-out: PI3K α IC50
T3 construct: purchased Upstate / Millipore Corporation

[4] = molecular target: T4, PI3K β (p110β/p85α) (Homo sapiens, UniProt P42338); test: PI 3-Kinase (human) HTRF assay, PI3K β; conditions: read-out: PI3K β IC50
T4 construct: purchased Upstate / Millipore Corporation
T4 sequence (P42338 whole entry): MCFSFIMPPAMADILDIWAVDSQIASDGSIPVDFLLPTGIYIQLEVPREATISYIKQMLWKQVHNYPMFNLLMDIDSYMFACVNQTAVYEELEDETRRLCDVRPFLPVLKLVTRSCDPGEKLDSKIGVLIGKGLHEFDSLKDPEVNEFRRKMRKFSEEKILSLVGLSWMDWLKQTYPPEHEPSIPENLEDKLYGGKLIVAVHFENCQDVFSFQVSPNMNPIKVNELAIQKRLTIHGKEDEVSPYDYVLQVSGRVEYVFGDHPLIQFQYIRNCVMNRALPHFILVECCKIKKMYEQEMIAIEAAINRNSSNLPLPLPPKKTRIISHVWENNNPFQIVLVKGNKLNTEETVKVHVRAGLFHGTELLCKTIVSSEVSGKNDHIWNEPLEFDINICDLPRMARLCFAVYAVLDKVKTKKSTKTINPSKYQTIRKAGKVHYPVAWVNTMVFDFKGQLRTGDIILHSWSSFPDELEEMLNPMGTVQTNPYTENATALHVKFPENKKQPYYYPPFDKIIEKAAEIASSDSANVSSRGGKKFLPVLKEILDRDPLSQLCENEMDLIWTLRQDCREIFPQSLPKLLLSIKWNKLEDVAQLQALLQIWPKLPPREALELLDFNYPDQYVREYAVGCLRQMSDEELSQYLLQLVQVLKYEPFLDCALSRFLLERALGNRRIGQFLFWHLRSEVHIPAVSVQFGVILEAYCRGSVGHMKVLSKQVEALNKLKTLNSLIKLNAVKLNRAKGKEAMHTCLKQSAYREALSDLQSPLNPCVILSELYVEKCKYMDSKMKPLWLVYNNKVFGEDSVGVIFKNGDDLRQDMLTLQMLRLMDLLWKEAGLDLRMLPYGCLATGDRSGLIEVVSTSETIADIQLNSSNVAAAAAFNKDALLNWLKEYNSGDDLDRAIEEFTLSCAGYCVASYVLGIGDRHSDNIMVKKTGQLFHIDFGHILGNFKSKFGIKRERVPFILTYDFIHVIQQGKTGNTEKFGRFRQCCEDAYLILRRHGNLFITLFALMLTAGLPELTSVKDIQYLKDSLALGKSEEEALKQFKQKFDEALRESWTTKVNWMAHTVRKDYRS
T4 sequence (P27986 whole entry partner): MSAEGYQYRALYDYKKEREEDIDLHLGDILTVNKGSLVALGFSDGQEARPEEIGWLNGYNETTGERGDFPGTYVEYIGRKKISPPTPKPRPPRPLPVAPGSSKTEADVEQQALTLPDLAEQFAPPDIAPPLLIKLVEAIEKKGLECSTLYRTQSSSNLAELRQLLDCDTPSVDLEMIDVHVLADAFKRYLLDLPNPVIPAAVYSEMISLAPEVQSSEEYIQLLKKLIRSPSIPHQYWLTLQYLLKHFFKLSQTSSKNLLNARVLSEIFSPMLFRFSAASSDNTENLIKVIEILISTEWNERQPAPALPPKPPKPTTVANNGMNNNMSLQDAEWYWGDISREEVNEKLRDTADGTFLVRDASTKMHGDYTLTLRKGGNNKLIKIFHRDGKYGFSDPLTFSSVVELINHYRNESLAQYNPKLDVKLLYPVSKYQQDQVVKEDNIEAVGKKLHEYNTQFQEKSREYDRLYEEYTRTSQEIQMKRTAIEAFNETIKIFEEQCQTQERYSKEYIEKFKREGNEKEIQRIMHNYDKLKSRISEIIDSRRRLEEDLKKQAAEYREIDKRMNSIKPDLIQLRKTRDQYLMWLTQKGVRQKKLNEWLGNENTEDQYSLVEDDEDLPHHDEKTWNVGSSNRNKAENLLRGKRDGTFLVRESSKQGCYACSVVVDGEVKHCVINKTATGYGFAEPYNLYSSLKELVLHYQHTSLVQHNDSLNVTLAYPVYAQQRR

T3 sequence (P42336 whole entry): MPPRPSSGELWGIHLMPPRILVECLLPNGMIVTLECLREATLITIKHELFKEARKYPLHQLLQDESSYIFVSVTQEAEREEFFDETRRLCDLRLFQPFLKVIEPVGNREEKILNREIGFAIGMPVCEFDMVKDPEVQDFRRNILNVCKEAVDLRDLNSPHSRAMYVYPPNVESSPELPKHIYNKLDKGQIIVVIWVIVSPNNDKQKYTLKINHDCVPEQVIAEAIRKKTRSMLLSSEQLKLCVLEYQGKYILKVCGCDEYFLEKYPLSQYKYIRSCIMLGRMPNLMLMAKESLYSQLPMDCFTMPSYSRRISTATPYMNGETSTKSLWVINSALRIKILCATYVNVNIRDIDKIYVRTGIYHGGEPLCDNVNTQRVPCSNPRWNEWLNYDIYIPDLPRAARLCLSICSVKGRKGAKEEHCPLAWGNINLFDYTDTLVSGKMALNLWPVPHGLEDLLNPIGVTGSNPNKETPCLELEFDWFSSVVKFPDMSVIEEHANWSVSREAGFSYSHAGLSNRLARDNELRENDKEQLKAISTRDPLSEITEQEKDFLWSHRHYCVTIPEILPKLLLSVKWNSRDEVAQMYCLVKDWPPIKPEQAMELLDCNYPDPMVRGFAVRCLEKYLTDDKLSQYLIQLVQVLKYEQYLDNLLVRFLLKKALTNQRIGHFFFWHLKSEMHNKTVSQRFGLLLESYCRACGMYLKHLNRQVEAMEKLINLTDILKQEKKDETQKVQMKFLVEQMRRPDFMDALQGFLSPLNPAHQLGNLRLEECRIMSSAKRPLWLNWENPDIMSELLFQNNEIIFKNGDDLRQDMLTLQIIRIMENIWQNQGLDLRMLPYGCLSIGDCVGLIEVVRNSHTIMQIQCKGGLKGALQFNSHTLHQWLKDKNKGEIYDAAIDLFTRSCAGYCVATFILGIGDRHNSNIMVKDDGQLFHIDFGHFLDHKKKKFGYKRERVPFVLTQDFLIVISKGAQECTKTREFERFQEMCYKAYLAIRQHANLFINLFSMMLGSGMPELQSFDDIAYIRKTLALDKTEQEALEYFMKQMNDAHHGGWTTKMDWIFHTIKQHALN
T3 sequence (P27986 whole entry partner): as the sequence (P27986 whole entry partner) above
T1 sequence (O00329 whole entry): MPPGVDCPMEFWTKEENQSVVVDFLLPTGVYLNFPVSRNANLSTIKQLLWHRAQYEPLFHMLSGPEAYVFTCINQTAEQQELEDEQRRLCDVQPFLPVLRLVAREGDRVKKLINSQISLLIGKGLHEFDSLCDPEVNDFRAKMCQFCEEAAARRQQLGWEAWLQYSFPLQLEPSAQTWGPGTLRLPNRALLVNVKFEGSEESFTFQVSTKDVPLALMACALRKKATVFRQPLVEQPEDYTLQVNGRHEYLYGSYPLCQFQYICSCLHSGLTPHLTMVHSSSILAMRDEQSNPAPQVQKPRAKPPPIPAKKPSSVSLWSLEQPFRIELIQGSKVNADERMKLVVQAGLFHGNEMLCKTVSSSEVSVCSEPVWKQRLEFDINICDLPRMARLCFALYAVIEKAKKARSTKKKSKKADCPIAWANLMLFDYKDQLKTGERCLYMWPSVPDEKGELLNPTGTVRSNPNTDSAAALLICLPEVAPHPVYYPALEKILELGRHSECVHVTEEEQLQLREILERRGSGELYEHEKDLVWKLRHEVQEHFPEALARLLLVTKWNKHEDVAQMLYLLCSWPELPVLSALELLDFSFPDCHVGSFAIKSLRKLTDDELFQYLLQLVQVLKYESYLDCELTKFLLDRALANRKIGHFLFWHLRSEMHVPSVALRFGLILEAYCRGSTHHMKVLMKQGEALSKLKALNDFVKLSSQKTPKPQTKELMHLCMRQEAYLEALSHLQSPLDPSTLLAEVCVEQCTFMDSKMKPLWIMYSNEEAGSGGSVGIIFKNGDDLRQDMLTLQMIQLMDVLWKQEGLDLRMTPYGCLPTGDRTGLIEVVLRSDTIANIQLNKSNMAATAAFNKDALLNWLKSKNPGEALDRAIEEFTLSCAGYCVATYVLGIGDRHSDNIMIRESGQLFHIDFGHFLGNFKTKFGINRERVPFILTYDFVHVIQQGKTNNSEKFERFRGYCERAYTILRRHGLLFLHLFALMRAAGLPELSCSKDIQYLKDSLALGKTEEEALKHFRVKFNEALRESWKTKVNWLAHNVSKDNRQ
T1 sequence (P27986 whole entry partner): as the sequence (P27986 whole entry partner) above
T2 sequence (P48736 whole entry): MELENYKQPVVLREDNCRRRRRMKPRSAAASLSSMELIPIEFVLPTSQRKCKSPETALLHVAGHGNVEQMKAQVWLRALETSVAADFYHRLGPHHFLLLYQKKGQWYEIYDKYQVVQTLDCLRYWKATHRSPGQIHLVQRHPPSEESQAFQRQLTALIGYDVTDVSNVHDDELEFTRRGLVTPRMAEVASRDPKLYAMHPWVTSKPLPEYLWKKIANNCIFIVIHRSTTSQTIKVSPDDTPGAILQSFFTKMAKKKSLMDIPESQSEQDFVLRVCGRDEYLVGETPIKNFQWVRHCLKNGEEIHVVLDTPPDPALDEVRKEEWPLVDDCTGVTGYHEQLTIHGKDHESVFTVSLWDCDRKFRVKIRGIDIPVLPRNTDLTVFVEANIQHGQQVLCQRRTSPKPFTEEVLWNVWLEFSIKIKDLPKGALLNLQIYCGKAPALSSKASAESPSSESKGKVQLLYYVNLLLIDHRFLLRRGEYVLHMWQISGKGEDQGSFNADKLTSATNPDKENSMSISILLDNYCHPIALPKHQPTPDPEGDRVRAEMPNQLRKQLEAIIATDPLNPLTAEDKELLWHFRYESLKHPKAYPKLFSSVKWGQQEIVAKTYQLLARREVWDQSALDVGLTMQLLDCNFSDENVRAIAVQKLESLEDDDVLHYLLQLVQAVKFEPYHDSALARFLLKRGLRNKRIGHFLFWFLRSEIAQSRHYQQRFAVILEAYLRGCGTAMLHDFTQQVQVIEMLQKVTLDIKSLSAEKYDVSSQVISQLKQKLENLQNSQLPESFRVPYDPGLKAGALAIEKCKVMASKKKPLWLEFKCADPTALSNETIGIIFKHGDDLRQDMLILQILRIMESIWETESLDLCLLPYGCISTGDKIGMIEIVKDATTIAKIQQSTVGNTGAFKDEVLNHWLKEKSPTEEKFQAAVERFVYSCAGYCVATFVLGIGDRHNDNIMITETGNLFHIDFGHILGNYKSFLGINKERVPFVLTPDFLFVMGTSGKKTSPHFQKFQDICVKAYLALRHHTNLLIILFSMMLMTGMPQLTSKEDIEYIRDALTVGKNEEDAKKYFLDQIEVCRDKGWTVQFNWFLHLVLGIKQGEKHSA

Compound	IC50 [1] [µM]	IC50 [2] [µM]	IC50 [3] [µM]	IC50 [4] [µM]
Nc1nc2cc(-c3ccc4nccc(CCN5CCOCC5)c4c3)ccc2o1 [Compound 27]	< 10	< 0.1	< 1	–
Nc1nc2cc(-c3ccc4nccc(N5CCOCC5)c4c3)ccc2o1 [Compound 28]	< 1	< 0.1	< 0.1	–
Nc1nc2cc(-c3ccc4ncnc(N5CCC(O)CC5)c4c3)ccc2o1 [Compound 29]	< 0.1	< 0.1	< 0.1	–
Cc1c(-c2ccc3oc(N)nc3c2)ccc2ncc(C(=O)N3CCOCC3)n12 [Compound 349]	> 10	–	> 10	> 10
Cc1cc2oc(N)nc2cc1-c1ccc2ncc(C(=O)N3CCOCC3)n2c1 [Compound 352]	> 10	–	> 10	> 10
Cc1cc(-c2ccc3oc(N)nc3c2)cc2c(C(=O)N3CCOCC3)cnn12 [Compound 357]	< 10	–	< 1	< 10
Nc1nc2cc(-c3ccc4ncc(N5CC(N6CCOCC6)C5)nc4c3)cc(Cl)c2o1 [Compound 358]	< 1	–	< 0.1	< 1
Nc1nc2cc(-c3ccc4ncc(C(=O)N5CCOCC5)n4c3)c(Cl)cc2o1 [Compound 370]	> 10	–	< 10	> 10
Nc1nc2cc(-c3ccc4ncc(C(=O)N5CCOCC5)n4c3)c(F)cc2o1 [Compound 372]	< 10	–	< 1	< 10
Nc1nc2cc(-c3ccc4ncc(N5CC[C@@H](N6CCOCC6)C5)nc4c3)ccc2o1 [Compound 376]	< 10	–	< 0.1	< 10
Cc1c(-c2ccc3oc(N)nc3c2)ccc2ncc(N3CC(N4CCNCC4)C3)nc12 [Compound 386]	> 10	–	< 0.1	> 10
COCCN1CCN(c2cnc3ccc(-c4ccc5oc(N)nc5c4)cc3n2)CC1 [Compound 387]	> 10	–	< 0.1	< 1
Nc1nc2cc(-c3ccc4ncc(C(=O)N5CCOCC5)n4c3)cnc2o1 [Compound 400]	> 10	–	< 0.1	< 10
Nc1nc2cc(-c3nc4cc(-c5cccnc5)cnc4s3)ccc2o1 [Compound 402]	> 10	–	> 10	> 10
Nc1nc2cc(-c3ccc4nc(N)c(N5CC(N6CCOCC6)C5)nc4c3)ccc2o1 [Compound 404]	> 10	–	> 10	> 10
CS(=O)(=O)Nc1nc2cc(-c3ccc4ncc(C(=O)N5CCOCC5)n4c3)ccc2o1 [Compound 405]	> 10	–	> 10	> 10
CNc1nc2cc(-c3ccc4ncc(C(=O)N5CCOCC5)n4c3)ccc2o1 [Compound 406]	> 10	–	< 10	< 10
COc1ncc(-c2ccc3ncc(C(=O)N4CCOCC4)n3c2)cc1N [Compound 414]	> 10	–	< 10	> 10
COc1ncc(-c2ccc3ncc(C(=O)N4CCOCC4)n3c2)cc1NS(=O)(=O)c1cccc(F)c1 [Compound 423]	< 0.1	–	< 0.1	< 1
Nc1nc2cc(-c3ccc4[nH]nc(N)c4c3)ccc2o1 [Compound 427]	> 10	–	> 10	> 10
CC(=O)Nc1n[nH]c2cc(-c3ccc4oc(N)nc4c3)ccc12 [Compound 430]	> 10	–	< 10	< 10
CC(=O)Nc1n[nH]c2ccc(-c3ccc4oc(N)nc4c3)cc12 [Compound 431]	> 10	–	> 10	> 10
Nc1nc2ccc(-c3cc(F)c4oc(N)nc4c3)cc2o1 [Compound 433]	< 10	–	< 1	< 1
CC(=O)Nc1nc2ccc(-c3cc(F)c4oc(N)nc4c3)cc2s1 [Compound 434]	< 0.1	–	< 0.1	< 0.1
Nc1nc2cc(-c3ccc4nc(N)sc4c3)cc(F)c2o1 [Compound 436]	< 1	–	< 0.1	< 0.1
Nc1nc2cc(-c3cc(F)c4ncc(C(=O)N5CCOCC5)n4c3)ccc2o1 [Compound 438]	> 10	–	< 10	> 10
O=C(c1cnc2ccc(-c3cccc(S(=O)(=O)Nc4ccccc4)c3)cn12)N1CCOCC1 [Compound 440]	> 10	–	> 10	> 10
O=C(c1cnc2ccc(-c3cccc(S(=O)(=O)Nc4cc(F)ccc4F)c3)cn12)N1CCOCC1 [Compound 441]	> 10	–	> 10	> 10
